Measured values taken from patent US10202361B2, “Pyridazinones as herbicides” (E I DU PONT DE NEMOURS AND COMPANY, priority 2014, dated 2019).

What was measured:
Test in all cases: Test C pre-/postemergence greenhouse herbicide test
Type in all cases: in vivo
[1] = system: pigweed (Amaranthus retroflexus); details: Amaranthus retroflexus, post-emergence, Pigweed, Postemergence, read-out: Plant response rating
Procedure, shortened: (§1)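 Plant response is scored on a 0–100 scale, where 100 means complete control, by visual comparison with controls 13 to 15 d after greenhouse treatment. Applications are made pre- and postemergence using a surfactant-containing, non-phytotoxic solvent formulation.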

[2] = system: galium (catchweed bedstraw, Galium aparine); details: post-emergence, Galium, Postemergence, read-out: Plant response rating
Procedure, shortened: as §1

[3] = system: johnsongrass (Sorghum halepense); details: Sorghum halepense, post-emergence, Johnsongrass, Postemergence, read-out: Plant response rating
Procedure, shortened: as §1

[4] = system: oat, wild (wild oat, Avena fatua); details: Postemergence
Procedure, shortened: as §1

[5] = system: wheat (winter wheat, Triticum aestivum); details: Triticum aestivum, post-emergence, Wheat, Postemergence, read-out: Plant response rating
Procedure, shortened: as §1

soybean (Glycine max) = details: Glycine max, post-emergence, Soybean, Postemergence, read-out: Plant response rating
Procedure, shortened: as §1

[6] = system: waterhemp (common waterhemp, Amaranthus rudis); details: Waterhemp, Postemergence
Procedure, shortened: as §1

[7] = system: lambsquarters (Chenopodium album); details: Postemergence
Procedure, shortened: as §1

[8] = system: nutsedge, yellow (yellow nutsedge, Cyperus esculentus); details: Cyperus, post-emergence, Nutsedge, Yellow, Postemergence, read-out: Plant response rating
Procedure, shortened: as §1

kochia (Kochia scoparia) = details: Postemergence
Procedure, shortened: as §1

corn (Zea mays) = details: Zea mays, post-emergence, Corn, Postemergence, read-out: Plant response rating
Procedure, shortened: as §1

[9] = system: barnyardgrass (Echinochloa crus-galli); details: Barnyardgrass, Postemergence
Procedure, shortened: as §1

Question: How did the pest or weed control at 31 g/ha ([1]; 31 g ai/ha) turn out when `Cc1cc(Oc2ccnc(C(F)(F)F)c2)nn(-c2ccc(C(F)(F)F)cc2)c1=O` [Compound 6, 4-methyl-2-[4-(trifluoromethyl)phenyl]-6-[[2-(trifluoromethyl)-4-pyridinyl]oxy]-3(2H)-pyridazinone] was run?
Answer: The pest or weed control at 31 g/ha was 85%.

Question: What about the pest or weed control at 62 g/ha ([1]; 62 g ai/ha) of the same compound?
Answer: The pest or weed control at 62 g/ha was 95%.

Question: What about the pest or weed control at 125 g/ha ([1]; 125 g ai/ha) of the same compound?
Answer: Its pest or weed control at 125 g/ha is 95%.

Question: And the pest or weed control at 250 g/ha ([1]; 250 g ai/ha)?
Answer: The pest or weed control at 250 g/ha was 95%.

Question: And the pest or weed control at 31 g/ha ([2]; 31 g ai/ha)?
Answer: Its pest or weed control at 31 g/ha is 90%.

Question: And the pest or weed control at 62 g/ha ([2]; 62 g ai/ha)?
Answer: Its pest or weed control at 62 g/ha is 90%.

Question: What about the pest or weed control at 125 g/ha ([2]; 125 g ai/ha) of the same compound?
Answer: Its pest or weed control at 125 g/ha is 90%.

Question: What about the pest or weed control at 250 g/ha ([2]; 250 g ai/ha) of the same compound?
Answer: The pest or weed control at 250 g/ha was 90%.

Question: What about the pest or weed control at 31 g/ha ([3]; 31 g ai/ha) of the same compound?
Answer: The pest or weed control at 31 g/ha was 5%.

Question: What about the pest or weed control at 62 g/ha ([3]; 62 g ai/ha) of the same compound?
Answer: The pest or weed control at 62 g/ha was 10%.

Question: And the pest or weed control at 125 g/ha ([3]; 125 g ai/ha)?
Answer: The pest or weed control at 125 g/ha was 20%.

Question: And the pest or weed control at 250 g/ha ([3]; 250 g ai/ha)?
Answer: The pest or weed control at 250 g/ha was 40%.

Question: What about the Plant response rating ([4]; 31 g ai/ha) of the same compound?
Answer: Its Plant response rating is 20.

Question: And the Plant response rating ([4]; 62 g ai/ha)?
Answer: Its Plant response rating is 25.

Question: What about the Plant response rating ([4]; 125 g ai/ha) of the same compound?
Answer: The Plant response rating was 25.

Question: And the Plant response rating ([4]; 250 g ai/ha)?
Answer: Its Plant response rating is 50.

Question: And the plant injury at 31 g/ha ([5]; 31 g ai/ha)?
Answer: The plant injury at 31 g/ha was 10%.

Question: And the plant injury at 62 g/ha ([5]; 62 g ai/ha)?
Answer: Its plant injury at 62 g/ha is 10%.

Question: What about the plant injury at 125 g/ha ([5]; 125 g ai/ha) of the same compound?
Answer: Its plant injury at 125 g/ha is 15%.

Question: And the plant injury at 250 g/ha ([5]; 250 g ai/ha)?
Answer: The plant injury at 250 g/ha was 25%.

Question: What about the plant injury at 31 g/ha (soybean (Glycine max); 31 g ai/ha) of the same compound?
Answer: The plant injury at 31 g/ha was 35%.

Question: And the plant injury at 62 g/ha (soybean (Glycine max); 62 g ai/ha)?
Answer: Its plant injury at 62 g/ha is 50%.

Question: And the plant injury at 125 g/ha (soybean (Glycine max); 125 g ai/ha)?
Answer: Its plant injury at 125 g/ha is 50%.

Question: And the plant injury at 250 g/ha (soybean (Glycine max); 250 g ai/ha)?
Answer: The plant injury at 250 g/ha was 65%.

Question: And the Plant response rating ([6]; 31 g ai/ha)?
Answer: Its Plant response rating is 95.

Question: And the Plant response rating ([6]; 62 g ai/ha)?
Answer: The Plant response rating was 98.

Question: And the Plant response rating ([6]; 125 g ai/ha)?
Answer: The Plant response rating was 98.

Question: And the Plant response rating ([6]; 250 g ai/ha)?
Answer: Its Plant response rating is 98.

Question: And the Plant response rating ([7]; 31 g ai/ha)?
Answer: Its Plant response rating is 75.

Question: What about the Plant response rating ([7]; 62 g ai/ha) of the same compound?
Answer: The Plant response rating was 90.

Question: What about the Plant response rating ([7]; 125 g ai/ha) of the same compound?
Answer: The Plant response rating was 95.

Question: What about the Plant response rating ([7]; 250 g ai/ha) of the same compound?
Answer: The Plant response rating was 95.

Question: What about the pest or weed control at 31 g/ha ([8]; 31 g ai/ha) of the same compound?
Answer: The pest or weed control at 31 g/ha was 5%.

Question: What about the pest or weed control at 62 g/ha ([8]; 62 g ai/ha) of the same compound?
Answer: Its pest or weed control at 62 g/ha is 5%.

Question: And the pest or weed control at 125 g/ha ([8]; 125 g ai/ha)?
Answer: The pest or weed control at 125 g/ha was 5%.

Question: And the pest or weed control at 250 g/ha ([8]; 250 g ai/ha)?
Answer: The pest or weed control at 250 g/ha was 15%.

Question: And the Plant response rating (kochia (Kochia scoparia); 31 g ai/ha)?
Answer: The Plant response rating was 90.

Question: What about the Plant response rating (kochia (Kochia scoparia); 62 g ai/ha) of the same compound?
Answer: The Plant response rating was 90.

Question: And the Plant response rating (kochia (Kochia scoparia); 125 g ai/ha)?
Answer: Its Plant response rating is 90.

Question: What about the Plant response rating (kochia (Kochia scoparia); 250 g ai/ha) of the same compound?
Answer: The Plant response rating was 95.

Question: And the plant injury at 31 g/ha (corn (Zea mays); 31 g ai/ha)?
Answer: Its plant injury at 31 g/ha is 15%.

Question: What about the plant injury at 62 g/ha (corn (Zea mays); 62 g ai/ha) of the same compound?
Answer: The plant injury at 62 g/ha was 25%.

Question: What about the plant injury at 125 g/ha (corn (Zea mays); 125 g ai/ha) of the same compound?
Answer: The plant injury at 125 g/ha was 25%.

Question: What about the plant injury at 250 g/ha (corn (Zea mays); 250 g ai/ha) of the same compound?
Answer: Its plant injury at 250 g/ha is 35%.

Question: And the Plant response rating ([9]; 31 g ai/ha)?
Answer: The Plant response rating was 10.

Question: What about the Plant response rating ([9]; 62 g ai/ha) of the same compound?
Answer: The Plant response rating was 10.

Question: And the Plant response rating ([9]; 125 g ai/ha)?
Answer: The Plant response rating was 35.

Question: What about the Plant response rating ([9]; 250 g ai/ha) of the same compound?
Answer: Its Plant response rating is 65.
